Columns and labels:
AMBEL (Ragweed, Common) = experiment: Preemergence herbicidal evaluation; assay type: in vivo, Ambrosia artemisifolia; details: rated 4-5 weeks after treatment
Outline: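 Herbicidal effect scored visually, 0-9, at 4 to 5 weeks against a control; compound applied preemergence by aqueous acetone spray to seeded soil at about 0.0156 to 0.500 kg/ha.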

[1] = test system: IPOSS (Morningglory Spp.); experiment: Preemergence herbicidal evaluation; assay type: in vivo, Ipomoea Spp.; details: rated 4-5 weeks after treatment
Text: (§1) Results of herbicide evaluation are expressed on a rating scale (0-9). The scale is based upon a visual observation of plant stand, vigor, malformation, size, chlorosis and overall plant appearance as compared with a control.
The preemergence herbicidal activity of the test compounds of the present invention is exemplified by the following tests in which the seeds of a variety of monocotyledonous and dicotyledonous plants are separately mixed with potting soil and planted on top of approximately one inch of soil in separate pint cups. After planting, the cups are sprayed with the selected aqueous acetone solution containing test compound in sufficient quantity to provide the equivalent of about 0.0156 to 0.500 kg per hectare of test compound per cup. The treated cups are then placed on greenhouse benches, watered and cared for in accordance with conventional greenhouse procedures. From four to five weeks after treatment, the tests are terminated and each cup is examined and rated according to the rating system provided in Example 37.
The compounds evaluated are reported by compound number given in Example 37.

CYPIR (Rice Flatsedge) = experiment: Preemergence weed control under flooded paddy conditions; assay type: in vivo, Cyperus iria; details: rated 3-4 weeks after treatment
Outline: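 Ratings on a 0-9 visual scale cover stand, vigor, malformation, size, chlorosis and overall appearance relative to a control, taken three to four weeks post-treatment. Application was into flood water over freshly sown silt loam at roughly 0.0313 to 0.500 kg/ha.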

MOOVA (Monochoria) = experiment: Postemergence weed control under flooded paddy conditions; assay type: in vivo, Monochoria vaginalis; details: postemergence weeds, 3-4 weeks after treatment
Outline: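 Herbicidal effect is judged by eye on a 0–9 scale versus control, 3–4 weeks after dosing. Dosing is into flood water kept 1.5–3 cm over the soil, at about 0.0313–0.500 kg/ha in aqueous/acetone 50/50 v/v, on 3–5 cm weeds and 1.5–2.5-leaf rice seedlings.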

[2] = test system: IPOSS (Morningglory Spp.); experiment: Postemergence herbicidal evaluation; assay type: in vivo, Ipomoea Spp.
Description: In the tests, seedling plants are grown in jiffy flats for about two weeks. The test compounds are dispersed in 50/50 acetone/water mixtures containing 0.5% TWEEN®20, a polyoxyethylene sorbitan monolaurate surfactant of Atlas Chemical Industries, in sufficient quantities to provide the equivalent of about 0.0156 kg to 0.500 kg per hectare of active compound when applied to the plants through a spray nozzle operating at 40 psi for a predetermined time. After spraying, the plants are placed on greenhouse benches and are cared for in accordance with conventional greenhouse procedures. From four to five weeks after treatment, the seedling plants are examined and rated according to the rating system set forth below. Where more than one test is involved for a given compound, the data are averaged.
Plant species employed in these evaluations are reported by header abbreviation, common name and scientific name.
as §1

ORYSAT (Rice, Tebonnet) [3] = experiment: Rice tolerance to post-transplant applications, flooded paddy conditions (Table III); assay type: in vivo, Oryza sativa, (L.) Tebonnet
Outline: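 Injury scored 0-9 by eye against untreated control, judging stand, vigor, malformation, size and chlorosis, three to four weeks after treatment. Compound in 50/50 aqueous/acetone, about 0.0313 to 0.500 kg/ha, was applied to paddy water (1.5 to 3 cm depth) three days after transplanting paired ten-day-old Tebonnet rice seedlings.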

ORYSAT (Rice, Tebonnet) [4] = experiment: Rice tolerance to post-transplant applications, flooded paddy conditions (Table IV); assay type: in vivo, Oryza sativa, (L.) Tebonnet
Text: as §1
Plastic containers containing weeds which are 3 to 5 cm tall and rice seedlings at the 1.5 to 2.5 leaf stage are flooded with water. The water is maintained at 1.5 to 3 cm above the soil surface for the duration of the experiment. Test compounds are applied as aqueous/ acetone mixtures 50/50 v/v directly into the flood water to provide the equivalent of about 0.0313 to 0.500 kg/ha of active ingredient. The treated containers are placed on greenhouse benches and cared for in accordance with conventional greenhouse procedures. Three to four weeks after treatment, the test is terminated and each container is examined and herbicidal effect rated according to the rating system provided in Example 37. The compounds evaluated are reported by compound number given in Example 37.

[5] = 0.0313 kg/ha, post-transplant rice, flooded paddy, rated 3-4 weeks after treatment
[6] = 0.0625 kg/ha, post-transplant rice, flooded paddy, rated 3-4 weeks after treatment
[7] = 0.1250 kg/ha, post-transplant rice, flooded paddy, rated 3-4 weeks after treatment
[8] = 0.2500 kg/ha, post-transplant rice, flooded paddy, rated 3-4 weeks after treatment
[9] = rate 0.0313 kg/ha, flooded paddy, post-transplant rice, 3-4 weeks after treatment
[10] = rate 0.0625 kg/ha, flooded paddy, post-transplant rice, 3-4 weeks after treatment
[11] = rate 0.1250 kg/ha, flooded paddy, post-transplant rice, 3-4 weeks after treatment
[12] = rate 0.2500 kg/ha, flooded paddy, post-transplant rice, 3-4 weeks after treatment

Structure (SMILES) | Herbicidal rating CYPIR (CYPIR (Rice Flatsedge); 0.0313 kg/ha) | Herbicidal rating CYPIR (CYPIR (Rice Flatsedge); 0.0625 kg/ha) | Herbicidal rating CYPIR (CYPIR (Rice Flatsedge); 0.1250 kg/ha) | Herbicidal rating CYPIR (CYPIR (Rice Flatsedge); 0.2500 kg/ha) | Herbicidal rating MOOVA (MOOVA (Monochoria); rate 0.0313 kg/ha) | Herbicidal rating MOOVA (MOOVA (Monochoria); rate 0.0625 kg/ha) | Herbicidal rating MOOVA (MOOVA (Monochoria); rate 0.1250 kg/ha) | Herbicidal rating MOOVA (MOOVA (Monochoria); rate 0.2500 kg/ha) | Preemergence herbicidal rating AMBEL (AMBEL (Ragweed, Common); rate 0.0313 kg/ha) | Preemergence herbicidal rating AMBEL (AMBEL (Ragweed, Common); rate 0.0625 kg/ha) | Preemergence herbicidal rating AMBEL (AMBEL (Ragweed, Common); rate 0.1250 kg/ha) | Preemergence herbicidal rating AMBEL (AMBEL (Ragweed, Common); rate 0.2500 kg/ha) | Herbicidal rating ORYSAT (rice tolerance) (ORYSAT (Rice, Tebonnet) [3]; [5]) | Herbicidal rating ORYSAT (rice tolerance) (ORYSAT (Rice, Tebonnet) [3]; [6]) | Herbicidal rating ORYSAT (rice tolerance) (ORYSAT (Rice, Tebonnet) [3]; [7]) | Herbicidal rating ORYSAT (rice tolerance) (ORYSAT (Rice, Tebonnet) [3]; [8]) | Herbicidal rating ORYSAT (rice tolerance) (ORYSAT (Rice, Tebonnet) [4]; [9]) | Herbicidal rating ORYSAT (rice tolerance) (ORYSAT (Rice, Tebonnet) [4]; [10]) | Herbicidal rating ORYSAT (rice tolerance) (ORYSAT (Rice, Tebonnet) [4]; [11]) | Herbicidal rating ORYSAT (rice tolerance) (ORYSAT (Rice, Tebonnet) [4]; [12]) | further results
CN1C(=O)CSC1=Nc1cc(N2C(=O)C3=C(CCCC3)C2=O)c(F)cc1Cl [Compound 1, N-{4-chloro-2-fluoro-5-[(3-methyl-4-oxo-2-thiazolidinylidene)amino]phenyl}-1-cyclohexene-1,2-dicarboximide] | 2.0 | 7.0 | 9.0 | 9.0 | 4.0 | 4.5 | 4.5 | 5.0 |  |  |  |  |  |  |  |  |  |  |  |  | AMBEL preemergence herbicidal rating (AMBEL (Ragweed, Common); rate 0.0313 kg/ha): 0.0; AMBEL preemergence herbicidal rating (AMBEL (Ragweed, Common); rate 0.0625 kg/ha): 2.0; AMBEL preemergence herbicidal rating (AMBEL (Ragweed, Common); rate 0.1250 kg/ha): 5.0; AMBEL preemergence herbicidal rating (AMBEL (Ragweed, Common); rate 0.2500 kg/ha): 5.0; AMBEL preemergence herbicidal rating (AMBEL (Ragweed, Common); rate 0.5000 kg/ha): 6.7; IPOSS preemergence herbicidal rating ([1]; rate 0.0313 kg/ha): 1.0; IPOSS preemergence herbicidal rating ([1]; rate 0.0625 kg/ha): 6.0; IPOSS preemergence herbicidal rating ([1]; rate 0.1250 kg/ha): 7.0; IPOSS preemergence herbicidal rating ([1]; rate 0.2500 kg/ha): 6.0; IPOSS preemergence herbicidal rating ([1]; rate 0.5000 kg/ha): 8.0; Herbicidal rating CYPIR (CYPIR (Rice Flatsedge); 0.5000 kg/ha): 9.0; Herbicidal rating MOOVA (MOOVA (Monochoria); rate 0.5000 kg/ha): 5.5; IPOSS herbicidal rating ([2]; rate 0.0157 kg/ha): 6.0; IPOSS herbicidal rating ([2]; rate 0.0313 kg/ha): 9.0; IPOSS herbicidal rating ([2]; rate 0.0625 kg/ha): 9.0; IPOSS herbicidal rating ([2]; rate 0.1250 kg/ha): 9.0; IPOSS herbicidal rating ([2]; rate 0.2500 kg/ha): 9.0; IPOSS herbicidal rating ([2]; rate 0.5000 kg/ha): 9.0
CCOC(=O)COc1ccccc1CC1S/C(=N/c2cc(-n3c(=O)cc(C(F)(F)F)n(C)c3=O)c(F)cc2Cl)N(CC(=O)OCC)C1=O (stereo not shown) [Compound 42, 2-{{2-Chloro-5-[3,6-dihydro-3-methyl-2,6-dioxo-4-(trifluoromethyl)-1(2H)-pyrimidinyl]-4-fluoro-phenyl}imino}-5-(o-hydroxybenzyl)-4-oxo-3-thiazolidineacetic acid, ethyl ester, ester with ethyl glycolate] | 0.0 | 0.0 | 0.0 | 0.0 | 7.0 | 9.0 | 9.0 | 9.0 | 0.0 | 0.0 | 0.0 | 6.0 | 0.0 | 0.0 | 0.0 | 0.0 | 0.0 | 0.0 | 0.0 | 0.0 | 
CCOC(=O)CN1C(=O)C[S+]([O-])/C1=N/c1cc(-n2c(=O)cc(C(F)(F)F)n(C)c2=O)c(F)cc1Cl (stereo not shown) [Compound 45, 2-{{2-Chloro-5-[3,6-dihydro-3-methyl-2,6-dioxo-4-(trifluoromethyl)-1(2H)-pyrimidinyl]-4-fluoro-phenyl}imino}-4-oxo-3-thiazolidineacetic acid, ethyl ester, 1-oxide] | 0.0 | 3.0 | 7.0 | 7.0 | 7.0 | 7.0 | 9.0 | 9.0 | 0.0 | 0.0 | 0.0 | 2.0 | 3.0 | 2.0 | 2.0 | 3.0 | 3.0 | 2.0 | 2.0 | 3.0 | Preemergence herbicidal rating AMBEL (AMBEL (Ragweed, Common); rate 0.0156 kg/ha): 0.0
O=C(O)CC1SC(=Nc2cc(N3C(=O)C4=C(CCCC4)C3=O)c(F)cc2Cl)N(CC(=O)O)C1=O (stereo not shown) [Compound 48, 2-{[2-Chloro-5-(1-cyclohexene-1,2-dicarboximido)-4-fluorophenyl]imino}-4-oxo-3,5-thiazolidinediacetic acid] |  |  | 2.0 | 5.0 |  |  | 3.0 | 6.0 | 0.0 | 0.0 | 0.0 | 4.0 |  |  | 4.0 | 6.0 |  |  | 4.0 | 6.0 | Preemergence herbicidal rating AMBEL (AMBEL (Ragweed, Common); rate 0.0156 kg/ha): 0.0
Cn1c(C(F)(F)F)cc(=O)n(-c2cc(/N=C3/SCC(=O)N3CC(=O)O)c(Cl)cc2F)c1=O [Compound 52, 2-{{2-Chloro-5-[3,6-dihydro-3-methyl-2,6-dioxo-4-(trifluoromethyl)-1(2H)-pyrimidinyl]-4-fluoro-phenyl}imino}-4-oxo-3-thiazolidineacetic acid] |  |  |  | 2.0 |  |  |  | 4.0 | 0.0 | 0.0 | 2.0 | 3.0 |  |  |  |  |  |  |  |  | Herbicidal rating ORYSAT (rice tolerance) (ORYSAT (Rice, Tebonnet) [3]; in vivo): 0.0; Herbicidal rating ORYSAT (rice tolerance) (ORYSAT (Rice, Tebonnet) [4]; in vivo): 0.0
